The target of the assay is T1, Cholesteryl ester transfer protein (Homo sapiens, UniProt P11597).
T1 sequence (P11597 whole entry): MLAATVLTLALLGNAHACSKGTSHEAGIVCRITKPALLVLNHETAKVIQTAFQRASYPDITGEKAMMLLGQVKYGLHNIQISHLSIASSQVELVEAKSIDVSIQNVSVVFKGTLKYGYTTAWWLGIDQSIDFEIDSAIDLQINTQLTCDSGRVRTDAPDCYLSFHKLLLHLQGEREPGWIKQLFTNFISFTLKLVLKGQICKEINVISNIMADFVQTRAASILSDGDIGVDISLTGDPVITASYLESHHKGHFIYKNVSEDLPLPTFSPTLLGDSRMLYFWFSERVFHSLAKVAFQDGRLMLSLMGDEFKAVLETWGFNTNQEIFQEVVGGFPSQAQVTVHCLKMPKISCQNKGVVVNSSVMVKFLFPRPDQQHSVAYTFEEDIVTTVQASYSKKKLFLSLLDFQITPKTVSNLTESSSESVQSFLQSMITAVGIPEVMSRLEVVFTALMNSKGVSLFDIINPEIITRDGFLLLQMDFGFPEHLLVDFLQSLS
Briefly: Inhibition of CETP in human plasma assessed as reduction in fluorescent intensity by fluorescence analysis.

Each structure is given as a SMILES string. Some results are limits rather than exact numbers.

Usually IC50 stands for the concentration at which inhibition is half-maximal. Take `CCC1CC(N(Cc2cc(C(F)(F)F)cc(C(F)(F)F)c2)C(C)=O)c2sccc2N1C(=O)OC(C)C` (centres undefined): the IC50 is 46 µM.

Regarding `CCC1CC(N(Cc2cc(C(F)(F)F)cc(C(F)(F)F)c2)C(C)=O)c2ccc(C)nc2N1C(=O)OC(C)C` (centres undefined), the IC50 is 44.1 µM. As for `CC[C@H]1C[C@@H](N(Cc2cc(C(F)(F)F)cc(C(F)(F)F)c2)c2nnn(C)n2)c2nc(C(F)(F)F)ccc2N1C(=O)OC(C)C`, the figure is 7.42 µM; as for `CC[C@H]1C[C@@H](N(Cc2cc(C(F)(F)F)cc(C(F)(F)F)c2)c2nnn(C)n2)c2nc(C)ccc2N1C(=O)OC(C)C`, 50 µM. As for `CC[C@@H]1C[C@H](N(Cc2cc(C(F)(F)F)cc(C(F)(F)F)c2)c2nnn(C)n2)c2nc(N(C)C)ccc2N1C(=O)OC(C)C`, the figure is 0.031 µM; as for `CC[C@@H]1C[C@H](N(Cc2cc(C(F)(F)F)cc(C(F)(F)F)c2)c2nnn(C)n2)c2nc(N)ccc2N1C(=O)OC(C)C`, 0.098 µM; as for `CC[C@@H]1C[C@H](N(Cc2cc(C(F)(F)F)cc(C(F)(F)F)c2)c2nnn(C)n2)c2nc(NC)ccc2N1C(=O)OC(C)C`, 0.142 µM. As for `CCNc1ccc2c(n1)[C@@H](N(Cc1cc(C(F)(F)F)cc(C(F)(F)F)c1)c1nnn(C)n1)C[C@@H](CC)N2C(=O)OC(C)C`, the figure is 0.591 µM.

For `CC[C@@H]1C[C@H](N(Cc2cc(C(F)(F)F)cc(C(F)(F)F)c2)c2nnn(C)n2)c2nc(N3CCCC3)ccc2N1C(=O)OC(C)C`, the IC50 came out at 0.471 µM.

For `CC[C@@H]1C[C@H](N(Cc2cc(C(F)(F)F)cc(C(F)(F)F)c2)c2nnn(C)n2)c2nc(N3CCOCC3)ccc2N1C(=O)OC(C)C`, the IC50 stood at 25 µM.

Regarding `CC[C@@H]1C[C@H](N(Cc2cc(C(F)(F)F)cc(C(F)(F)F)c2)c2nnn(C)n2)c2nc(N3CCNCC3)ccc2N1C(=O)OC(C)C`, the IC50 is above 50 µM. As for `CC[C@@H]1C[C@H](N(Cc2cc(Cl)cc(C(F)(F)F)c2)c2nnn(C)n2)c2nc(C(F)(F)F)ccc2N1C(=O)OC(C)C`, the figure is 0.02 µM; as for `CC[C@@H]1C[C@H](N(Cc2cc(Cl)cc(C(F)(F)F)c2)c2nnn(C)n2)c2nc(C)ccc2N1C(=O)OC(C)C`, 0.012 µM; as for `CC[C@@H]1C[C@H](N(Cc2cc(C#N)cc(C(F)(F)F)c2)c2nnn(C)n2)c2nc(C)ccc2N1C(=O)OC(C)C`, 0.021 µM.

`CC[C@@H]1C[C@H](N(Cc2cc(F)cc(C(F)(F)F)c2)c2nnn(C)n2)c2nc(C)ccc2N1C(=O)OC(C)C`: the IC50 was 0.03 µM. As for `CC[C@@H]1C[C@H](N(Cc2cc(Cl)cc(Cl)c2)c2nnn(C)n2)c2nc(C)ccc2N1C(=O)OC(C)C`, the figure is 0.024 µM; as for `CC[C@@H]1C[C@H](N(Cc2cc(Cl)cc(Cc3cncc(C(F)(F)F)c3)c2)c2nnn(C)n2)c2nc(C(F)(F)F)ccc2N1C(=O)OC(C)C`, 0.207 µM; as for `CC[C@@H]1C[C@H](N(Cc2cc(C(F)(F)F)cc(C(F)(F)F)c2)c2nnn(C)n2)c2nc(C(F)(F)F)ccc2N1C(=O)OC`, 0.197 µM. Consider `CCOC(=O)N1c2ccc(C(F)(F)F)nc2[C@@H](N(Cc2cc(C(F)(F)F)cc(C(F)(F)F)c2)c2nnn(C)n2)C[C@H]1CC`, for which the IC50 is 0.029 µM. As to `CC[C@@H]1C[C@H](N(Cc2cc(C(F)(F)F)cc(C(F)(F)F)c2)c2nnn(C)n2)c2nc(C(F)(F)F)ccc2N1C(=O)OCCO`, the IC50 came to 0.108 µM. As for `CC[C@@H]1C[C@H](N(Cc2cc(C(F)(F)F)cc(C(F)(F)F)c2)c2nnn(C)n2)c2nc(C(F)(F)F)ccc2N1C(=O)OCC(C)(C)C(=O)O`, the figure is 0.139 µM. As for `CC[C@@H]1C[C@H](N(Cc2cc(C(F)(F)F)cc(C(F)(F)F)c2)c2nnn(C)n2)c2nc(C(F)(F)F)ccc2N1C(=O)OCCN(C)C`, the figure is 0.572 µM; as for `CC[C@@H]1C[C@H](N(Cc2cc(C(F)(F)F)cc(C(F)(F)F)c2)c2nnn(C)n2)c2nc(C(F)(F)F)ccc2N1C(=O)OC1CCOCC1`, 0.066 µM.

In the case of `CC[C@@H]1C[C@H](N(Cc2cc(C(F)(F)F)cc(C(F)(F)F)c2)c2nnn(C)n2)c2nc(C(F)(F)F)ccc2N1C(=O)OC1CCN(C)CC1`, the 50% inhibitory concentration (IC50) was 0.072 µM.

With `CC[C@@H]1C[C@H](N(Cc2cc(C(F)(F)F)cc(C(F)(F)F)c2)c2nnn(C)n2)c2nc(C(F)(F)F)ccc2N1C(=O)OCCc1nn[nH]n1`, the 50% inhibitory concentration (IC50) was 0.488 µM. With `CC[C@@H]1C[C@H](N(Cc2cc(C(F)(F)F)cc(C(F)(F)F)c2)c2nnn(C)n2)c2nc(C(F)(F)F)ccc2N1C(=O)OCCN1CCOCC1`, the IC50 came to 2.11 µM.

For the molecule `CC[C@@H]1C[C@H](N(Cc2cc(C(F)(F)F)cc(C(F)(F)F)c2)c2nnn(C)n2)c2nc(C(F)(F)F)ccc2N1C(=O)OCCN1CCN(C)CC1`, the IC50 was 5.73 µM. As for `CC[C@@H]1C[C@H](N(Cc2cc(C(F)(F)F)cc(C(F)(F)F)c2)c2nnn(C)n2)c2nc(C(F)(F)F)ccc2N1C(=O)C(C)C`, the figure is 0.055 µM; as for `CCCC(=O)N1c2ccc(C(F)(F)F)nc2[C@@H](N(Cc2cc(C(F)(F)F)cc(C(F)(F)F)c2)c2nnn(C)n2)C[C@H]1CC`, 0.114 µM; as for `CC[C@@H]1C[C@H](N(Cc2cc(C(F)(F)F)cc(C(F)(F)F)c2)c2nnn(C)n2)c2nc(C(F)(F)F)ccc2N1C(=O)c1c(C)cnn1C`, 0.193 µM.

`CC[C@@H]1C[C@H](N(Cc2cc(C(F)(F)F)cc(C(F)(F)F)c2)c2nnn(C)n2)c2nc(C(F)(F)F)ccc2N1CC(C)C`: the IC50 is 0.205 µM.

Take `CC[C@@H]1C[C@H](N(Cc2cc(C(F)(F)F)cc(C(F)(F)F)c2)c2nnn(C)n2)c2nc(C(F)(F)F)ccc2N1CCC(C)C`: the IC50 amounted to 0.825 µM. As for `CC[C@@H]1C[C@H](N(Cc2cc(C(F)(F)F)cc(C(F)(F)F)c2)C(C)=O)c2nc(OC)ccc2N1C(=O)OC(C)C` (racemic), the figure is 0.487 µM; as for `CC[C@@H]1C[C@H](N(Cc2cc(C(F)(F)F)cc(C(F)(F)F)c2)C(C)=O)c2nc(C(F)(F)F)ccc2N1C(=O)OC(C)C` (racemic), 0.396 µM. As for `CC[C@@H]1C[C@H](N(Cc2cc(C(F)(F)F)cc(C(F)(F)F)c2)C(C)=O)c2nc(Br)ccc2N1C(=O)OC(C)C` (racemic), the figure is 1.3 µM; as for `CC[C@@H]1C[C@H](N(Cc2cc(C(F)(F)F)cc(C(F)(F)F)c2)C(C)=O)c2nc(C)ccc2N1C(=O)OC(C)C` (racemic), 0.98 µM; as for `CC[C@@H]1C[C@H](N(Cc2cc(C(F)(F)F)cc(C(F)(F)F)c2)C(C)=O)c2nc(N(C)C)ccc2N1C(=O)OC(C)C` (racemic), 0.948 µM.

Consider `CC(=O)N(Cc1cc(C(F)(F)F)cc(C(F)(F)F)c1)[C@H]1C[C@@H](C)N(C(=O)OC(C)C)c2ccc(C(F)(F)F)nc21` (racemic), for which the IC50 turned out to be 1.05 µM.

With `CC(=O)N(Cc1cc(C(F)(F)F)cc(C(F)(F)F)c1)[C@H]1C[C@@H](C2CC2)N(C(=O)OC(C)C)c2ccc(C(F)(F)F)nc21` (racemic), the IC50 is 0.98 µM. As for `CC[C@@H]1C[C@H](N(C#N)Cc2cc(C(F)(F)F)cc(C(F)(F)F)c2)c2nc(C(F)(F)F)ccc2N1C(=O)OC(C)C` (racemic), the figure is above 5 µM; as for `CC[C@@H]1C[C@H](N(Cc2cc(C(F)(F)F)cc(C(F)(F)F)c2)c2noc(C)n2)c2nc(C(F)(F)F)ccc2N1C(=O)OC(C)C` (racemic), 0.074 µM. As for `CC[C@@H]1C[C@H](N(Cc2cc(C(F)(F)F)cc(C(F)(F)F)c2)c2cc(C)n[nH]2)c2nc(C(F)(F)F)ccc2N1C(=O)OC(C)C` (racemic), the figure is 0.203 µM; as for `CC[C@@H]1C[C@H](N(Cc2cc(C(F)(F)F)cc(C(F)(F)F)c2)c2cc(C)no2)c2nc(C(F)(F)F)ccc2N1C(=O)OC(C)C` (racemic), 0.154 µM.

As to `CC[C@@H]1C[C@H](N(Cc2cc(C(F)(F)F)cc(C(F)(F)F)c2)c2nnn[nH]2)c2nc(C(F)(F)F)ccc2N1C(=O)OC(C)C` (racemic), the IC50 is above 50 µM. As for `CC[C@@H]1C[C@H](N(Cc2cc(C(F)(F)F)cc(C(F)(F)F)c2)c2nnnn2C)c2nc(C(F)(F)F)ccc2N1C(=O)OC(C)C` (racemic), the figure is above 50 µM; as for `CC[C@@H]1C[C@H](N(Cc2cc(C(F)(F)F)cc(C(F)(F)F)c2)c2nnn(C)n2)c2nc(C(F)(F)F)ccc2N1C(=O)OC(C)C` (racemic), 0.049 µM; as for `CC[C@@H]1C[C@H](N(Cc2cc(C(F)(F)F)cc(C(F)(F)F)c2)c2nnn(C)n2)c2nc(OC)ccc2N1C(=O)OC(C)C` (racemic), 0.134 µM. On to `CC[C@@H]1C[C@H](N(Cc2cc(C(F)(F)F)cc(C(F)(F)F)c2)c2nnn(C)n2)c2nc(Br)ccc2N1C(=O)OC(C)C` (racemic), for which the IC50 worked out at 0.047 µM.

On to `CC[C@@H]1C[C@H](N(Cc2cc(C(F)(F)F)cc(C(F)(F)F)c2)c2nnn(C)n2)c2nc(C)ccc2N1C(=O)OC(C)C` (racemic), for which the half-maximal inhibitory concentration (IC50) amounted to 0.061 µM. Regarding `CC[C@@H]1C[C@H](N(Cc2cc(C(F)(F)F)cc(C(F)(F)F)c2)c2nnn(CCN)n2)c2nc(C(F)(F)F)ccc2N1C(=O)OC(C)C` (racemic), the IC50 was 0.066 µM.

With `CC[C@@H]1C[C@H](N(Cc2cc(C(F)(F)F)cc(C(F)(F)F)c2)c2nnn(CCO)n2)c2nc(C(F)(F)F)ccc2N1C(=O)OC(C)C` (racemic), the IC50 stood at 0.044 µM. Turning to `CC[C@@H]1C[C@H](N(Cc2cc(C(F)(F)F)cc(C(F)(F)F)c2)c2nnn(C)n2)c2nc(OC)c(C)cc2N1C(=O)OC(C)C` (racemic), the IC50 worked out at 0.0384 µM. As for `CC[C@@H]1C[C@H](N(Cc2cc(C(F)(F)F)cc(C(F)(F)F)c2)c2nnn(C)n2)c2nc(N)c(C)cc2N1C(=O)OC(C)C` (racemic), the figure is 0.106 µM. As for `CCOC(=O)N1c2c(C)cc(C(F)(F)F)nc2[C@@H](N(Cc2cc(C(F)(F)F)cc(C(F)(F)F)c2)c2nnn(C)n2)C[C@H]1CC` (racemic), the figure is 0.024 µM.

(Values after ChEMBL document CHEMBL2016576, “Design, synthesis and structure-activity-relationship of 1,5-tetrahydronaphthyridines as CETP inhibitors” (Bioorg Med Chem Lett, 2012).)
